Here are results for 21 compounds from US20250011281A1, “THERAPEUTIC ALKALOID COMPOUNDS” (Sensorium Therapeutics, Inc., priority 2023, published 2025).

For one series, the target named is T1, SERT (Homo sapiens, UniProt P31645).
T1 construct: expressed in transfected cells
The series is described as follows: SERT Inhibition Assay (Neurotransmitter Transportation Fluorescence assay). The class given is cell-based. The note with it: for IC50 Ratio to (−) Mesembrine: SERT assay, ratio to compound 0001. On the procedure:
Example A: SERT Inhibition Assay
SERT inhibition was measured using a Neurotransmitter Transportation Fluorescence assay. Briefly, stable 5HHH cells were prepared in a 384 microwell plate. Compounds were prepared by in assay buffer (20 mM HEPES, 0.1% BSA). The compounds were added to the plated cells and incubated for 30 minutes at 37° C. 25 μL of dye solution (Molecular Devices Neurotransmitter Transporter Uptake Assay Kit) was added per well and incubated for 30 minutes at 37° C. The plates were then read on a plate reader.

Another series has as its target 5-HT transporter (SERT) (Homo sapiens, UniProt P31645). Particulars: concentration response curves; cited from earlier work.
The next series has as its target 5-HTT (Homo sapiens, UniProt P31645). The series is described as follows: Potency at 5-HTT compared to mesembrine.
A short description of series [1]: Metabolic stability compared to mesembrine. The series is classed as in vitro ADME.
Setting [2] is: stable 5HHH cells, 30 minutes at 37° C., read-out: SERT Assay Potency Range.

Like-named read-outs stand apart in the source and are kept apart here.

T1 sequence (P31645 whole entry, species assumed): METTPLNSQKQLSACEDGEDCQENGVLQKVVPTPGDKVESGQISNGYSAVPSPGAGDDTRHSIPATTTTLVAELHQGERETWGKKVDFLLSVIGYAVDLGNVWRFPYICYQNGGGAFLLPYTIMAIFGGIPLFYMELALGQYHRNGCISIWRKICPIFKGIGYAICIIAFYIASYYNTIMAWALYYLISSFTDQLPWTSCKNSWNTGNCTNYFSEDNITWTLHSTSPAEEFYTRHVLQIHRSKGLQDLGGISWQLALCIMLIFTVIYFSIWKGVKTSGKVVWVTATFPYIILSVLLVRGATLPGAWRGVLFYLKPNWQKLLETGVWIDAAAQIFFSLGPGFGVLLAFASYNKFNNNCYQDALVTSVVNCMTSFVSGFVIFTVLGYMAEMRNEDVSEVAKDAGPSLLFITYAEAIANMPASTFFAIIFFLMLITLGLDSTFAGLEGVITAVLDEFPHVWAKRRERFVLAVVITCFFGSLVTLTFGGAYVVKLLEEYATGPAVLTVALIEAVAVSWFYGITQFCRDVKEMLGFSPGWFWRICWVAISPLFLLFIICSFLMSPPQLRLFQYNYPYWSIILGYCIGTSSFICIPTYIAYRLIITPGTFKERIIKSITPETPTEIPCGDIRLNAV
Chain of 5-HTT (P31645 whole entry, species assumed): as above
Chain of 5-HT transporter (SERT) (P31645 whole entry, species assumed): as above

Regarding `COc1ccc([C@@]23CC[C@H](O)C[C@@H]2N(C)CC3)cc1OC` [Compound 0019, (3aS,6S,7aS)-3a-(3,4-dimethoxyphenyl)-1-methyloctahydro-1H-indol-6-ol], the “IC50 Ratio to (−) Mesembrine” value at SERT was at least 1.0. For the same compound, the IC50 at SERT (setting [2]) was below 50 nM.

Regarding `COc1ccc([C@@]23C=C[C@H](O)C[C@@H]2N(C)CC3)cc1OC` [Compound 0021], the “IC50 Ratio to (−) Mesembrine” value at SERT is at least 10. The IC50 on SERT (setting [2]) fell in the range of 100 to 500 nM.

`COc1ccc([C@]23C=C[C@H](O)C[C@H]2N(C)CC3)cc1OC` [Compound 0023]: at SERT, the “IC50 Ratio to (−) Mesembrine” value is at least 10. The IC50 on SERT (setting [2]) was in the range of 100 to 500 nM.

Take `COc1cc([C@@]23CC[C@@H](O)C[C@@H]2N(C)CC3)ccc1OC(F)F` [Compound 2723]: at SERT, the IC50 is below 50 nM and the “IC50 Ratio to (−) Mesembrine” value is at most 0.5.

On to `COc1ccc([C@]23CCN(C)[C@H]2[C@H]2CC[C@@H]3C[C@H]2O)cc1OC` [Compound 1933], for which the “IC50 Ratio to (−) Mesembrine” value at SERT is at least 1.0. For the same compound, the IC50 on SERT (setting [2]) is below 50 nM.

As to `COc1ccc([C@@]23CC[C@@H](O)C[C@@H]2N(C)CC3)cc1OC` [Compound 0018, (3aS,6R,7aS)-3a-(3,4-dimethoxyphenyl)-1-methyloctahydro-1H-indol-6-ol], the “IC50 Ratio to (−) Mesembrine” value on SERT is listed as at least 1.0. Further, at SERT (setting [2]), the IC50 is below 50 nM.

As to `CCN1CC[C@]2(c3ccc(OC)c(OC)c3)CC[C@@H](O)C[C@H]12` [Compound 1001], at SERT, the “IC50 Ratio to (−) Mesembrine” value is on record as at least 100. Further, the IC50 on SERT (setting [2]) is above 1000 nM.

As to `COc1ccc([C@@]23C=C[C@@H](O)C[C@@H]2N(C)CC3)cc1OC` [Mesembrenol, mesembrenol], on 5-HT transporter (SERT), the nH is reported as 1.1.

Consider `COc1ccc([C@]23C=C[C@@H](O)C[C@H]2N(C)CC3)cc1OC` [Compound 0024], for which the “IC50 Ratio to (−) Mesembrine” value at SERT is on record as at least 100. The IC50 on SERT (setting [2]) lay in the range of 100 to 500 nM.

As for `CCOc1ccc([C@@]23CC[C@H](O)C[C@@H]2N(C)CC3)cc1OCC` [Compound 1764], the “IC50 Ratio to (−) Mesembrine” value at SERT is at most 0.5. Further, the IC50 on SERT (setting [2]) was below 50 nM.

`CCCOc1cc([C@@]23CC[C@@H](O)C[C@@H]2N(C)CC3)ccc1OC` [Compound 0707]: the “IC50 Ratio to (−) Mesembrine” value on SERT is at least 10. For the same compound, the IC50 at SERT (setting [2]) lay in the range of 50 to 100 nM.

Take `COc1ccc([C@@]23CC[C@H](O)C[C@@H]2N(C)CC3)cc1OC` [6-epi-mesembranol]: the “potency at 5-HTT” value on 5-HTT is recorded as “decrease in potency”. For the same compound, the metabolic stability entry in series [1] is on record as “enhanced metabolic stability”.

`COc1ccc([C@]23CCN(C)[C@H]2C[C@@H](O)[C@@H]2O[C@@H]23)cc1OC` [Compound 1930]: on SERT, the “IC50 Ratio to (−) Mesembrine” value is given as at least 10. The IC50 at SERT (setting [2]) lay within 100 to 500 nM.

Regarding `COc1ccc([C@@]23CC[C@@H](O)C[C@@H]2N(C)CC3)cc1OC` [mesembranol, Mesembranol], the “potency at 5-HTT” value at 5-HTT is on record as “decrease in potency”. Further, in series [1], the metabolic stability entry is recorded as “enhanced metabolic stability”.

Regarding `COc1cc([C@@]23CC[C@H](O)C[C@@H]2N(C)CC3)ccc1O` [Compound 2700], on SERT, the “IC50 Ratio to (−) Mesembrine” value is recorded as at least 1.0. The IC50 on SERT (setting [2]) was below 50 nM.

With `CCOc1ccc([C@@]23CC[C@@H](O)C[C@@H]2N(C)CC3)cc1OCC` [Compound 1763], the “IC50 Ratio to (−) Mesembrine” value at SERT is recorded as at least 1.0. In addition, at SERT (setting [2]), the IC50 was below 50 nM.

For the compound `COc1cc([C@@]23CC[C@H](O)C[C@@H]2N(C)CC3)ccc1OC(F)F` [Compound 2724], at SERT, the “IC50 Ratio to (−) Mesembrine” value is reported as at most 0.5. Also, the IC50 at SERT (setting [2]) is below 50 nM.

Regarding `COc1ccc([C@@]23C=C[C@@H](O)C[C@@H]2N(C)CC3)cc1OC` [Compound 0020], at SERT, the “IC50 Ratio to (−) Mesembrine” value was at least 100. The IC50 on SERT (setting [2]) lay in the range of 100 to 500 nM.

Regarding `COc1ccc([C@@]23CCN(C)[C@@H]2C[C@H](O)[C@@H]2O[C@@H]23)cc1OC` (single isomer, unassigned) [Compound 1932], the “IC50 Ratio to (−) Mesembrine” value on SERT is at least 10. The IC50 on SERT (setting [2]) is 100 to 500 nM.

As to `CCN1CC[C@]2(c3ccc(OC)c(OC)c3)CC[C@H](O)C[C@H]12` [Compound 1002], the “IC50 Ratio to (−) Mesembrine” value at SERT is given as at least 100. On SERT (setting [2]), the IC50 lay within 500 to 1000 nM.

With `CCCOc1cc([C@@]23CC[C@H](O)C[C@@H]2N(C)CC3)ccc1OC` [Compound 0708], on SERT, the “IC50 Ratio to (−) Mesembrine” value was at least 1.0. Further, on SERT (setting [2]), the IC50 was below 50 nM.
